Tested on: L-687,414-induced hyperlocomotion
Experiment: L-687,414-induced hyperlocomotion (Digiscan locomotor activity)
Type: in vivo, mouse
Details: dose ip 30, at the same time as s.c. 50 mg/kg L-687,414; % inhibition of horizontal activity; mice
Experimental: The authors described that hyperlocomotion induced by L-687,414 was inhibited by a series of known antipsychotic drugs. […] These findings predict antipsychotic activity for the present compounds, making them useful for the treatment of schizophrenia and other disorders as described above.
The described compounds of formula I and I-1 reduce L-687,414-induced hyperlocomotion. This was assessed by using a computerized Digiscan 16 Animal Activity Monitoring System (Omnitech Electronics, Columbus, Ohio) to quantify locomotor activity. Animals were kept under a 12 h light/dark cycle and experiments were performed during the light period. Each activity monitoring chamber consisted of a Plexiglas box (41×41×28 cm; W×L×H) with sawdust bedding on the floor surrounded by invisible horizontal and vertical infrared sensor beams. The test boxes were divided by a Plexiglas cross providing each mouse with 20×20 cm of moving space. Cages were connected to a Digiscan Analyzer linked to a computer that constantly collected the beam status information. Records of photocell beam interruptions for individual animals were taken every 5 min over the duration of the experimental session and the sum of the first 6 periods was used as the final parameter. Compounds were administered either p.o. 15 min before a s.c. injection of 50 mg/kg of L-687,414, or i.p. at the same time as a s.c. injection of 50 mg/kg of L-687,414. Mice were then transferred from their home cage to the recording chambers for a 15-min habituation phase allowing free exploration of the new environment. Horizontal activity was then recorded for a 30-min time period. The % inhibition of L-687,414-induced hyperlocomotion was calculated according to the equation: ((Veh+L-687,414 horizontal activity−drug+L-687,414 horizontal activity)/Veh+L-687,414 horizontal activity)×100
ID50 values, defined as doses of each compound producing 50% inhibition of L-687,414-induced hyperlocomotion, were calculated by linear regression analysis of a dose-response data using an Excel-based computer-fitting program.
As data was not presupposed to be normally distributed, groups treated with test compounds were statistically compared with the control (vehicle-treated) group using one-tailed Mann Whitney U tests. In statistics, the Mann-Whitney U test (also called the Mann-Whitney-Wilcoxon (MWW) or Wilcoxon rank-sum test) is a non-parametric statistical hypothesis test for assessing whether one of two samples of independent observations tends to have larger values than the other. It is one of the most well-known non-parametric significance tests. […] P values given in table 1 are one-tailed since only decreases in locomotion were expected and tested for (Mann, H. B., Whitney, D. R. (1947), “On a Test of Whether one of Two Random Variables is Stochastically Larger than the Other”, Annals of Mathematical Statistics, 18 (1), 50-60).

Structure (SMILES) | Inhibition, ip [%]
Cc1cc(C(=O)Nc2ccc3c(c2)NC(=O)C3(C)C)ccn1 [Example 1, N-(3,3-Dimethyl-2-oxo-2,3-dihydro-1H-indol-6-yl)-2-methyl-isonicotinamide] | 81.6
CN1C(=O)C2(CCCC2)c2ccc(NC(=O)c3ccncc3)cc21 [Example 3, N-(1′-Methyl-2′-oxospiro[cyclopentane-1,3′-indoline]-6′-yl)isonicotinamide] | 83.3
Cc1cc(C(=O)Nc2ccc3c(c2)N(C)C(=O)C3(C)C)ccn1 [Example 5, 2-Methyl-N-(1,3,3-trimethyl-2-oxoindolin-6-yl)isonicotinamide] | 77.2
CN1C(=O)C(C)(C)c2cnc(NC(=O)c3ccncc3)cc21 [Example 6, N-(1,3,3-Trimethyl-2-oxo-2,3-dihydro-1H-pyrrolo[3,2-c]pyridin-6-yl)isonicotinamide] | 64.5
CCN1C(=O)C(C)(C)c2ccc(NC(=O)c3ccncc3)cc21 [Example 7, N-(1-ethyl-3,3-dimethyl-2-oxoindolin-6-yl)isonicotinamide] | 90.4
Cc1cc(C(=O)Nc2ccc3c(c2)N(C)C(=O)C3(C)C)nc(C)n1 [Example 8, 2,6-Dimethyl-N-(1,3,3-trimethyl-2-oxoindolin-6-yl)pyrimidine-4-carboxamide] | 70.7
COc1ccc(C(=O)Nc2ccc3c(c2)N(C)C(=O)C3(C)C)cn1 [Example 10, 6-Methoxy-N-(1,3,3-trimethyl-2-oxoindolin-6-yl)nicotinamide] | 62.2
Cc1ncc(C(=O)Nc2ccc3c(c2)N(C)C(=O)C3(C)C)c(C)n1 [Example 12, 2,4-Dimethyl-N-(1,3,3-trimethyl-2-oxoindolin-6-yl)pyrimidine-5-carboxamide] | 69.2
CC1(C)C(=O)N(C2CC2)c2cc(NC(=O)c3ccncc3)ccc21 [Example 14, N-(1-Cyclopropyl-3,3-dimethyl-2-oxoindolin-6-yl)isonicotinamide] | 66.5
COc1cnccc1C(=O)Nc1ccc2c(c1)N(C)C(=O)C2(C)C [Example 15, 3-Methoxy-N-(1,3,3-trimethyl-2-oxoindolin-6-yl)isonicotinamide] | 56.3
Cc1cc(C(=O)Nc2ccc3c(c2)N(C2CC2)C(=O)C3(C)C)ccn1 [Example 17, N-(1-Cyclopropyl-3,3-dimethyl-2-oxoindolin-6-yl)-2-methylisonicotinamide] | 79.3
CC1(C)C(=O)N(C2CC2)c2cc(NC(=O)c3cccnc3)ccc21 [Example 18, N-(1-Cyclopropyl-3,3-dimethyl-2-oxoindolin-6-yl)nicotinamide] | 68.8
CN1C(=O)C(C)(C)c2cc(F)c(NC(=O)c3ccncc3)cc21 [Example 20, N-(5-Fluoro-1,3,3-trimethyl-2-oxoindolin-6-yl)isonicotinamide] | 87.3
CCN1C(=O)C(C)(C)c2ccc(NC(=O)c3cccnc3)cc21 [Example 21, N-(1-Ethyl-3,3-dimethyl-2-oxoindolin-6-yl)nicotinamide] | 76.6
CN1C(=O)C(C)(C)c2cc(F)c(NC(=O)c3cccnc3)cc21 [Example 24, N-(5-fluoro-1,3,3-trimethyl-2-oxoindolin-6-yl)nicotinamide] | 80.0
Cc1cc(C(=O)Nc2ccc3c(c2F)N(C)C(=O)C3(C)C)ccn1 [Example 28, N-(7-fluoro-1,3,3-trimethyl-2-oxoindolin-6-yl)-2-methylisonicotinamide] | 74.7
Cc1cc(C(=O)Nc2ccc3c(c2)N(C)C(=O)C3(C)C)c(F)cn1 [Example 33, 5-Fluoro-2-methyl-N-(1,3,3-trimethyl-2-oxoindolin-6-yl)isonicotinamide] | 78.6

Structure (SMILES) | Inhibition, ip [%]
Cc1cc(C(=O)Nc2cc3c(cc2Cl)C(C)(C)C(=O)N3C)ccn1 [Example 35, N-(5-Chloro-1,3,3-trimethyl-2-oxoindolin-6-yl)-2-methylisonicotinamide] | 57.3
CC1(C)C(=O)N(C2CC2)c2cc(NC(=O)c3ccncc3)c(F)cc21 [Example 36, N-(1-cyclopropyl-5-fluoro-3,3-dimethyl-2-oxoindolin-6-yl)isonicotinamide] | 89.0
CC(C)N1C(=O)C(C)(C)c2ccc(NC(=O)c3cccnc3)cc21 [Example 37, N-(1-Isopropyl-3,3-dimethyl-2-oxoindolin-6-yl)nicotinamide] | 64.0
CC1(C)C(=O)N(C2CC2)c2cc(NC(=O)c3cccnc3)c(F)cc21 [Example 38, N-(1-Cyclopropyl-5-fluoro-3,3-dimethyl-2-oxoindolin-6-yl)nicotinamide] | 60.8
CCN1C(=O)C(C)(C)c2ccc(NC(=O)c3ccnc(C)c3)cc21 [Example 39, N-(1-Ethyl-3,3-dimethyl-2-oxoindolin-6-yl)-2-methylisonicotinamide] | 58.6
CCN1C(=O)C(C)(C)c2ccc(NC(=O)c3ccncc3Cl)cc21 [Example 40, 3-Chloro-N-(1-ethyl-3,3-dimethyl-2-oxoindolin-6-yl)isonicotinamide] | 72.9
CCN1C(=O)C(C)(C)c2ccc(NC(=O)c3ccncc3F)cc21 [Example 41, N-(1-ethyl-3,3-dimethyl-2-oxoindolin-6-yl)-3-fluoroisonicotinamide] | 85.2
CN1C(=O)C(C)(C)c2ccc(NC(=O)c3ccc(F)cc3)cc21 [Example 43, 4-Fluoro-N-(1,3,3-trimethyl-2-oxoindolin-6-yl)benzamide] | 88.0
Cc1cc(C(=O)Nc2cc3c(cc2F)C(C)(C)C(=O)N3C2CC2)ccn1 [Example 46, N-(1-Cyclopropyl-5-fluoro-3,3-dimethyl-2-oxoindolin-6-yl)-2-methylisonicotinamide] | 72.7
CN1C(=O)C(C)(C)c2cc(F)c(NC(=O)c3ccncc3Cl)cc21 [Example 51, 3-Chloro-N-(5-fluoro-1,3,3-trimethyl-2-oxoindolin-6-yl)isonicotinamide] | 80.1
CC1(C)C(=O)N(CC2CC2)c2cc(NC(=O)c3ccncc3)ccc21 [Example 52, N-(1-(Cyclopropylmethyl)-3,3-dimethyl-2-oxoindolin-6-yl)isonicotinamide] | 78.8
CC1(C)C(=O)N(CC2CC2)c2cc(NC(=O)c3ccncc3F)ccc21 [Example 53, N-(1-(Cyclopropylmethyl)-3,3-dimethyl-2-oxoindolin-6-yl)-3-fluoroisonicotinamide] | 89.9
Cc1cc(C(=O)Nc2ccc3c(c2)N(C2CC2)C(=O)C3(C)C)c(F)cn1 [Example 54, N-(1-Cyclopropyl-3,3-dimethyl-2-oxoindolin-6-yl)-5-fluoro-2-methylisonicotinamide] | 55.6
O=C(Nc1ccc2c(c1)N(C1CC1)C(=O)C21CC1)c1ccncc1 [Example 55, N-(1′-Cyclopropyl-2′-oxospiro[cyclopropane-1,3′-indoline]-6′-yl)isonicotinamide] | 61.7
O=C(Nc1ccc2c(c1)N(C1CC1)C(=O)C21CC1)c1ccncc1F [Example 57, N-(1′-Cyclopropyl-2′-oxospiro[cyclopropane-1,3′-indoline]-6′-yl)-3-fluoroisonicotinamide] | 60.5
CC1(C)C(=O)N(C2COC2)c2cc(NC(=O)c3ccncc3F)ccc21 [Example 59] | 88.6

Same assay, conditions: p.o. 15 min before s.c. 50 mg/kg L-687,414; dose producing 50% inhibition of hyperlocomotion; mice

Structure (SMILES) | ID50 po [mg/kg]
CN1C(=O)C(C)(C)c2ccc(NC(=O)c3ccncc3)cc21 [Example 2, N-(1,3,3-Trimethyl-2-oxo-2,3-dihydro-1H-indol-6-yl)-isonicotinamide] | 2.06
CN1C(=O)C(C)(C)c2ccc(NC(=O)c3cccnc3)cc21 [Example 4, N-(1,3,3-Trimethyl-2-oxoindolin-6-yl)nicotinamide] | 1.84
Cc1ccncc1C(=O)Nc1ccc2c(c1)N(C)C(=O)C2(C)C [Example 9, 4-Methyl-N-(1,3,3-trimethyl-2-oxoindolin-6-yl)nicotinamide] | 6.6
CN1C(=O)C(C)(C)c2ccc(NC(=O)c3ccncc3Cl)cc21 [Example 27, 3-Chloro-N-(1,3,3-trimethyl-2-oxoindolin-6-yl)isonicotinamide] | 1.95
CC1(C)C(=O)N(C2CC2)c2cc(NC(=O)c3ccncc3F)ccc21 [Example 31, N-(1-Cyclopropyl-3,3-dimethyl-2-oxoindolin-6-yl)-3-fluoroisonicotinamide] | 1

Reference: patent US9221816B2, “2-oxo-2,3-dihydro-indoles for the treatment of CNS disorders” (Hoffmann-La Roche Inc., priority 2012, dated 2015)
